For 22 compounds, EC50 results are on record in patent publication US11377425B1, “Small molecule modulators of IL-17” (LEO Pharma A/S, priority 2018, dated 2022).

A word on the EC50: it is the concentration at which the effect is half-maximal.

A value given as a limit tells only on which side of the number the result lay.

In this test the target is T1, human IL-17AA (Homo sapiens, UniProt Q16552).
T1 construct: host or cells: HEK (human embryonic kidney) cells
T1 sequence (Q16552 24-155): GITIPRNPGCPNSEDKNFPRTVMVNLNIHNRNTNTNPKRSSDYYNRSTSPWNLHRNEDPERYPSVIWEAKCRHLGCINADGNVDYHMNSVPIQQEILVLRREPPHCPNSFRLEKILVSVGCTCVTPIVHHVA
The experiment in a line: IL-8 release assay in human epithelial keratinocytes adult (HEKa). The class given is cell-based. Particulars: HEKa cells, 3 ng/mL HEK-human IL-17AA + 10 ng/mL human TNFalpha; read-out: Rel EC50 IL-8 release assay. A digest of the protocol: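 IL-8 release, quantified by HTRF and normalized to controls, reports IL-17 signaling in HEKa cells treated with compound plus final 3 ng/mL IL-17AA (HEK-derived) and 10 ng/mL TNF-alpha for 68-72 h; TNF-alpha-only wells set 100% inhibition. Four-parameter logistic fits (r^2>0.9) give relative IC50 and Emax; PrestoBlue flags cytotoxicity.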

Turning to `Cc1noc(CO)c1-c1ccc(NC(=O)[C@@H](NC(=O)c2ccnn2C(C)C)C(C2CC2)C2CC2)cc1` [Example 409, N-[(1S)-1-(dicyclopropylmethyl)-2-[4-[5-(hydroxymethyl)-3-methyl-isoxazol-4-yl]anilino]-2-oxo-ethyl]-2-isopropyl-pyrazole-3-carboxamide], the EC50 lay within 100 to 1000 nM.

Take `Cc1n[nH]c(C)c1-c1ccc(NC(=O)[C@@H](NC(=O)c2ccnn2C(C)C)C(C2CC2)C2CC2)cc1O` [Example 410, N-[(1S)-1-(Dicyclopropylmethyl)-2-[4-(3,5-dimethyl-1H-pyrazol-4-yl)-3-hydroxy-anilino]-2-oxo-ethyl]-2-isopropyl-pyrazole-3-carboxamide]: the EC50 is less than 100 nM.

Regarding `Cc1n[nH]c(C)c1-c1ccc(NC(=O)[C@@H](NC(=O)c2ccnn2C)C(c2ccccc2)c2ccccc2)cc1O` [Example 411, N-[(1S)-1-benzhydryl-2-[4-(3,5-dimethyl-1H-pyrazol-4-yl)-3-hydroxy-anilino]-2-oxo-ethyl]-2-methyl-pyrazole-3-carboxamide], the EC50 lay in the range of 100 to 1000 nM.

In the case of `Cc1n[nH]c(C)c1-c1ccc(NC(=O)[C@@H](NC(=O)c2ccnn2C)C2CCCCC2)cc1O` [Example 412, N-[(1S)-1-cyclohexyl-2-[4-(3,5-dimethyl-1H-pyrazol-4-yl)-3-hydroxy-anilino]-2-oxo-ethyl]-2-methyl-pyrazole-3-carboxamide], the EC50 is less than 100 nM.

As to `CCn1nccc1C(=O)N[C@H](C(=O)Nc1ccc(-c2c(C)n[nH]c2C)c(O)c1)C(C1CC1)C1CC1` [Example 413, N-[(1S)-1-(dicyclopropylmethyl)-2-[4-(3,5-dimethyl-1H-pyrazol-4-yl)-3-hydroxy-anilino]-2-oxo-ethyl]-2-ethyl-pyrazole-3-carboxamide], the EC50 is less than 100 nM.

`Cc1n[nH]c(C)c1-c1ccc(NC(=O)[C@@H](NC(=O)c2ccnn2C)C(C2CC2)C2CC2)cc1O` [Example 414, N-[(1S)-1-(dicyclopropylmethyl)-2-[4-(3,5-dimethyl-1H-pyrazol-4-yl)-3-hydroxy-anilino]-2-oxo-ethyl]-2-methyl-pyrazole-3-carboxamide]: the EC50 is less than 100 nM.

`Cc1n[nH]c(C)c1-c1ccc(NC(=O)[C@@H](NC(=O)C2(F)CC2)C(C2CC2)C2CC2)cc1O` [Example 415, N-[(1S)-1-(dicyclopropylmethyl)-2-[4-(3,5-dimethyl-1H-pyrazol-4-yl)-3-hydroxy-anilino]-2-oxo-ethyl]-1-fluoro-cyclopropanecarboxamide]: the EC50 lay in the range of 100 to 1000 nM.

For the compound `CCn1nccc1C(=O)N[C@H](C(=O)Nc1ccc(-c2c(C)n[nH]c2C)c(O)c1)[C@H]1CC[C@H](C)CC1` [Example 416, N-[(1S)-2-[4-(3,5-dimethyl-1H-pyrazol-4-yl)-3-hydroxy-anilino]-1-(trans-4-methylcyclohexyl)-2-oxo-ethyl]-2-ethyl-pyrazole-3-carboxamide], the EC50 was less than 100 nM.

`Cc1n[nH]c(C)c1-c1ccc(NC(=O)[C@@H](NC(=O)c2ccnn2C(C)C)[C@H]2CC[C@H](C)CC2)cc1O` [Example 417, N-[(1S)-2-[4-(3,5-dimethyl-1H-pyrazol-4-yl)-3-hydroxy-anilino]-1-(trans-4-methylcyclohexyl)-2-oxo-ethyl]-2-isopropyl-pyrazole-3-carboxamide]: the EC50 is less than 100 nM.

As for `CCc1n[nH]c(CC)c1-c1ccc(NC(=O)[C@@H](NC(=O)c2ccnn2C(C)C)C(C2CC2)C2CC2)cc1O` [Example 418, N-[(1S)-1-(dicyclopropylmethyl)-2-[4-(3,5-diethyl-1H-pyrazol-4-yl)-3-hydroxy-anilino]-2-oxo-ethyl]-2-isopropyl-pyrazole-3-carboxamide], the EC50 was less than 100 nM.

Consider `Cn1cncc1-c1ccc(NC(=O)[C@@H](NC(=O)c2ccnn2C)C2CCCCC2)cc1O` [Example 419, N-[(1S)-1-Cyclohexyl-2-[3-hydroxy-4-(3-methylimidazol-4-yl)anilino]-2-oxo-ethyl]-2-methyl-pyrazole-3-carboxamide], for which the EC50 is 100 to 1000 nM.

For `Cn1cncc1-c1ccc(NC(=O)[C@@H](NC(=O)c2ccnn2C)C(c2ccccc2)c2ccccc2)cc1O` [Example 420, N-[(1S)-1-benzhydryl-2-[3-hydroxy-4-(3-methylimidazol-4-yl)anilino]-2-oxo-ethyl]-2-methyl-pyrazole-3-carboxamide], the EC50 is 100 to 1000 nM.

Regarding `Cc1n[nH]cc1-c1ccc(NC(=O)[C@@H](NC(=O)c2ccnn2C)C(c2ccccc2)c2ccccc2)cc1O` [Example 421, N-[(1S)-1-Benzhydryl-2-[3-hydroxy-4-(3-methyl-1H-pyrazol-4-yl)anilino]-2-oxo-ethyl]-2-methyl-pyrazole-3-carboxamide], the EC50 was 100 to 1000 nM.

For `Cn1cncc1-c1ccc(NC(=O)[C@@H](NC(=O)OC2CC2)C2CCCCC2)cc1O` [Example 422, Cyclopropyl N-[(1S)-1-cyclohexyl-2-[3-hydroxy-4-(3-methylimidazol-4-yl)anilino]-2-oxo-ethyl]carbamate], the EC50 is greater than 1000 nM.

Consider `Cc1ncn(C)c1-c1ccc(NC(=O)[C@@H](NC(=O)OC2CC2)C(c2ccccc2)c2ccccc2)cc1` [Example 423, Cyclopropyl N-[(1S)-1-benzhydryl-2-[4-(3,5-dimethylimidazol-4-yl)anilino]-2-oxo-ethyl]carbamate], for which the EC50 was in the range of 100 to 1000 nM.

On to `Cc1n[nH]c(C)c1-c1ccc(NC(=O)[C@@H](NC(=O)OC2CC2)C2CCCCC2)cc1O` [Example 424, cyclopropyl N-[(1S)-1-cyclohexyl-2-[4-(3,5-dimethyl-1H-pyrazol-4-yl)-3-hydroxy-anilino]-2-oxo-ethyl]carbamate], for which the EC50 is 100 to 1000 nM.

Take `Cc1n[nH]c(C)c1-c1ccc(NC(=O)[C@@H](NC(=O)OC2CC2)C2CCCCCC2)cc1O` [Example 425, cyclopropyl N-[(1S)-1-cycloheptyl-2-[4-(3,5-dimethyl-1H-pyrazol-4-yl)-3-hydroxy-anilino]-2-oxo-ethyl]carbamate]: the EC50 was in the range of 100 to 1000 nM.

For `Cc1n[nH]c(C)c1-c1ccc(NC(=O)[C@@H](NC(=O)OC2CC2)C(c2ccccc2)c2ccccc2)cc1` [Example 426, cyclopropyl N-[(1S)-1-benzhydryl-2-[4-(3,5-dimethyl-1H-pyrazol-4-yl)anilino]-2-oxo-ethyl]carbamate], the EC50 is 100 to 1000 nM.

Consider `Cc1n[nH]c(C)c1-c1ccc(NC(=O)[C@@H](NC(=O)OC2CC2)C2CCCCCC2)cc1` [Example 427, cyclopropyl N-[(1S)-1-cycloheptyl-2-[4-(3,5-dimethyl-1H-pyrazol-4-yl)anilino]-2-oxo-ethyl]carbamate], for which the EC50 is less than 100 nM.

Consider `Cc1n[nH]c(C)c1-c1ccc(NC(=O)[C@@H](NC(=O)OC2CCC2)C(C2CC2)C2CC2)cc1` [Example 428, Cyclobutyl N-[(1S)-1-(dicyclopropylmethyl)-2-[4-(3,5-dimethyl-1H-pyrazol-4-yl)anilino]-2-oxo-ethyl]carbamate], for which the EC50 is less than 100 nM.

As to `Cc1n[nH]c(C)c1-c1ccc(NC(=O)[C@@H](NC(=O)OCc2ccccc2)C2CCCCC2)cc1` [Example 429, benzyl N-[(1S)-1-cyclohexyl-2-[4-(3,5-dimethyl-1H-pyrazol-4-yl)anilino]-2-oxo-ethyl]carbamate], the EC50 fell in the range of 100 to 1000 nM.

Consider `Cc1n[nH]c(C)c1-c1ccc(NC(=O)[C@@H](NC(=O)OCc2cccnc2)C2CCCCC2)cc1` [Example 430, 3-pyridylmethyl N-[(1S)-1-cyclohexyl-2-[4-(3,5-dimethyl-1H-pyrazol-4-yl)anilino]-2-oxo-ethyl]carbamate], for which the EC50 lay within 100 to 1000 nM.
